Values joined by “and” are separate entries in the source; they are usually repeats but may differ in a detail not shown here. Equal entries are not always repeated.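 48-hour exposure; five concentrations; linearly interpolated endpoints. GI50 marks 50% less growth. The concentration for full growth arrest is given as TGI.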 Where only a bound is given, the exact number is not on record here.

Test systems include CAKI-1 renal; HCC-2998 colon; HOP-92 NSCLC; K-562 leukemia; KM12 colon; RXF 393 renal; SF-268 CNS; SK-OV-3 ovarian; TK-10 renal; HL-60(TB) leukemia.
Common to all, as to assay: NCI anticancer screen, dose series, 48 h

Turning to `CCC/C(=N\NC(=S)N1CC2CCC(CC2)C1)c1ccccn1`, the GI50 in the assay on CAKI-1 renal is 1.03 µM; in the assay with HCC-2998 colon it was 0.244 µM; in the assay with HOP-92 NSCLC, 0.0362 µM; with KM12 colon it was 0.0382 µM; in the assay with RXF 393 renal, 0.0356 µM; in the assay with SF-268 CNS, 0.332 µM. Further, the GI50 with SK-OV-3 ovarian is 1.1 µM. For the same compound, the TGI was 2.75 µM and 2.69 µM in the assay with CAKI-1 renal; 1.48 µM and 1.86 µM in the assay with HCC-2998 colon; 0.879 µM and 1.34 µM in the assay with HOP-92 NSCLC; 1.23 µM in the assay with K-562 leukemia; 0.631 µM and 1.32 µM in the assay with KM12 colon; 1.34 µM and 0.518 µM with RXF 393 renal. The TGI with SF-268 CNS is 8.33 µM and 2.6 µM; in the assay on SK-OV-3 ovarian, 2.13 µM and 2.31 µM; with TK-10 renal, 5.84 µM and 2.9 µM.
With `O=C(O)CCC(N=Cc1nc(-c2ccccc2)oc1O)C(=O)O` (configuration not stated), the TGI with CAKI-1 renal, in the assay with HCC-2998 colon, in the assay on K-562 leukemia, with KM12 colon, with RXF 393 renal and with SF-268 CNS was > 100 µM throughout. The TGI in the assay with SK-OV-3 ovarian and in the assay on TK-10 renal was > 100 µM in each case.
As for `CC(C)([NH-])CO.CC(C)([NH-])CO.[Cl][Cd][Cl]`, the GI50 in the assay on CAKI-1 renal was 18.3 µM; in the assay on HCC-2998 colon, 19.3 µM; in the assay with HL-60(TB) leukemia, 26.9 µM; with HOP-92 NSCLC it was 19.3 µM; with K-562 leukemia, 18.7 µM; with KM12 colon, 36.5 µM. Further, the GI50 was 18.4 µM in the assay with SF-268 CNS and 19.1 µM in the assay on TK-10 renal. Moreover, the TGI with CAKI-1 renal is 32.3 µM; with HCC-2998 colon, 59.5 µM; with HL-60(TB) leukemia, 55.8 µM; with HOP-92 NSCLC, 34 µM; in the assay on K-562 leukemia, 40 µM; with KM12 colon it was > 100 µM. The TGI stood at 35.3 µM in the assay on SF-268 CNS and 53.6 µM in the assay with TK-10 renal.
Consider `O=c1[nH]c(=S)[nH]c2c1CN(CCCN1CCOCC1)CN2`, for which the TGI in the assay on CAKI-1 renal is > 100 µM; with HCC-2998 colon, 73.3 µM; in the assay with HOP-92 NSCLC it was > 100 µM; with K-562 leukemia it was > 100 µM; in the assay on KM12 colon, 95.9 µM; in the assay with SF-268 CNS, 59.1 µM. Besides, the TGI in the assay with TK-10 renal was > 100 µM.
Regarding `C#Cc1c(/C=C/C(=O)OCC)ccc2ccccc12`, the GI50 in the assay with CAKI-1 renal is 21.4 µM; in the assay with HCC-2998 colon, 27.4 µM; in the assay with HL-60(TB) leukemia it was 10.6 µM; with K-562 leukemia, 6.98 µM; with KM12 colon, 5.84 µM; in the assay on RXF 393 renal, 22.6 µM. The GI50 is 18.2 µM in the assay on SF-268 CNS, 58.8 µM with SK-OV-3 ovarian and 30.4 µM in the assay with TK-10 renal. The TGI with CAKI-1 renal was 56.7 µM; in the assay on HCC-2998 colon, > 100 µM; with HL-60(TB) leukemia, 26.1 µM; in the assay on K-562 leukemia, 41.7 µM; in the assay with KM12 colon it was 23.9 µM; with RXF 393 renal, 69.7 µM. Besides, the TGI in the assay with SF-268 CNS was 58.5 µM; in the assay on SK-OV-3 ovarian, > 100 µM; in the assay on TK-10 renal, 79.1 µM.
As to `CN1C(=O)C2C3C=C4c5ccccc5N(c5ccccc5)C4(C2C1=O)[C@H]1C(=O)N(C)C(=O)[C@@H]31` (some centres not stated), the TGI with HCC-2998 colon, with HL-60(TB) leukemia, in the assay on HOP-92 NSCLC, in the assay with K-562 leukemia, with KM12 colon and in the assay on SF-268 CNS was > 100 µM throughout. Also, the TGI in the assay on SK-OV-3 ovarian and in the assay with TK-10 renal was > 100 µM in each case.
Take `C#CCSc1cc(Cl)c(C)cc1S(=O)(=O)Nc1nc2ccccc2o1`: the GI50 in the assay with CAKI-1 renal is 26.3 µM; with HCC-2998 colon, 22.5 µM; in the assay on HOP-92 NSCLC, 17.9 µM; in the assay on K-562 leukemia, 69.8 µM; in the assay with KM12 colon, 27.4 µM; in the assay on RXF 393 renal it was 32.9 µM. Further, the GI50 is 59.8 µM with SF-268 CNS and 48.5 µM with TK-10 renal. Further, the TGI is 67.9 µM in the assay on CAKI-1 renal; 48.3 µM with HCC-2998 colon; 51.3 µM with HOP-92 NSCLC; > 100 µM in the assay on K-562 leukemia; 75.4 µM with KM12 colon; > 100 µM in the assay on RXF 393 renal. The TGI in the assay with SF-268 CNS and in the assay with TK-10 renal was > 100 µM in each case.
With `O=Nc1ccc(NO)c2ccccc12`, the GI50 with CAKI-1 renal is 12.2 µM; with HCC-2998 colon, 17.4 µM; in the assay on HL-60(TB) leukemia, 3.14 µM; in the assay on K-562 leukemia, 16.1 µM; in the assay with KM12 colon it was 15.6 µM; in the assay with RXF 393 renal, 11.8 µM. In addition, the GI50 in the assay on SF-268 CNS was 13.8 µM; with SK-OV-3 ovarian, 19.1 µM; with TK-10 renal, 27.6 µM. For the same compound, the TGI in the assay with CAKI-1 renal stood at 25.2 µM; in the assay with HCC-2998 colon, 31.7 µM; in the assay with HL-60(TB) leukemia, 7.56 µM; in the assay on K-562 leukemia, 44.6 µM; in the assay with KM12 colon, 30.4 µM; with RXF 393 renal it was 24.2 µM. The TGI was found to be 27.8 µM with SF-268 CNS, 35.6 µM in the assay with SK-OV-3 ovarian and 42.5 µM with TK-10 renal.
For `Cn1cnc([N+](=O)[O-])c1Sc1nccn1-c1cccc2ccccc12`, the TGI was > 100 µM in the assay on CAKI-1 renal; > 100 µM in the assay on HCC-2998 colon; 54.9 µM with HOP-92 NSCLC; > 100 µM in the assay with K-562 leukemia; > 100 µM in the assay with KM12 colon; 84.2 µM in the assay with SF-268 CNS. The TGI in the assay with SK-OV-3 ovarian and in the assay with TK-10 renal was > 100 µM in each case.
In the case of `COc1c2ccoc2c(OC)c2oc(=O)ccc12`, the TGI with CAKI-1 renal, in the assay with HCC-2998 colon, in the assay on HL-60(TB) leukemia, in the assay with K-562 leukemia, with KM12 colon and with RXF 393 renal was > 100 µM each time. Moreover, the TGI with SF-268 CNS and in the assay on TK-10 renal was > 100 µM throughout.
As for `COc1cc(C2SCC(=O)N2c2ncc(C)s2)cc(OC)c1OC` (configuration not stated), the GI50 is 12 µM in the assay with CAKI-1 renal; 28.7 µM in the assay on HL-60(TB) leukemia; 23.5 µM in the assay with K-562 leukemia; 18.7 µM in the assay on KM12 colon; 27.5 µM with RXF 393 renal; > 50 µM in the assay with SF-268 CNS. The GI50 in the assay on TK-10 renal is 21.4 µM. Moreover, the TGI with CAKI-1 renal, with HL-60(TB) leukemia, in the assay on K-562 leukemia, with KM12 colon, in the assay with RXF 393 renal and in the assay on SF-268 CNS was > 50 µM throughout. For the same compound, the TGI with TK-10 renal was > 50 µM.

These data come from PubChem BioAssay (NCI).
